Target: T1, PfK5ΔL6-MD (Plasmodium falciparum, UniProt O77382, DEL175-269)
T1 construct: gene PF3D7_0317500
Details: read-out: KATP; 1 μM GMPCPP-stabilised Sus scrofa microtubules; 50 mM Tris-HCl pH 8, KCl, 2 mM MgCl2, 2 mM DTT; 26 °C

`Nc1ncnc2c1ncn2[C@@H]1O[C@H](COP(=O)(O)OP(=O)(O)OP(=O)(O)O)[C@@H](O)[C@H]1O` [ATP] gave a Km of 9.5 µM.

— article PMC8526983 (The Journal of Biological Chemistry, 2021)
